# pIC50: −log10 of the molar value. Activity calls are given as the source filed them. The rule behind the calls is not given here.
# Legend:
# [1] = system: HT-29; test: Induction of apoptosis in human HT-29 cells assessed as early apoptotic cells at 1 uM measured after 48 hrs in presence of AZD1390 by Annexin V-FITC/Propidium iodide staining based flow cytometry analysis (reference value: 3.81%); type: functional
# [2] = system: HT-29; test: Cytotoxicity against ATM proficient human HT-29 cells assessed as reduction in cell viability incubated for 72 hrs by MTT assay; type: functional, cell-based; settings: dose 0.001-100 µM, DDE = dose-dependent effect
# [3] = system: A549; test: Antiproliferative activity against ATM proficient human A549 cells assessed as reduction in cell viability incubated for 72 hrs by MTT assay; type: functional, cell-based; settings: dose 0.001-100 µM, DDE = dose-dependent effect
# [4] = system: OVCAR-3; test: Antiproliferative activity against ATM-deficient human OVCAR-3 cells assessed as reduction in cell viability incubated for 72 hrs by MTT assay; type: functional, cell-based; settings: dose 0.001-100 µM, DDE = dose-dependent effect
# [5] = system: LoVo; test: Antiproliferative activity against ATM-deficient human LoVo cells assessed as reduction in cell viability incubated for 72 hrs by MTT assay; type: functional, cell-based; settings: dose 0.001-100 µM, DDE = dose-dependent effect
# [6] = system: Granta-519; test: Antiproliferative activity against ATM-deficient human Granta-519 cells assessed as reduction in cell viability incubated for 72 hrs by MTT assay; type: functional, cell-based; settings: dose 0.001-100 µM, DDE = dose-dependent effect
# [7] = system: NCI-H23; test: Antiproliferative activity against ATM-deficient human NCI-H23 cells assessed as reduction in cell viability incubated for 72 hrs by MTT assay; type: functional, cell-based; settings: dose 0.001-100 µM, DDE = dose-dependent effect
# [8] = system: SW-620; test: Antiproliferative activity against ATM-deficient human SW-620 cells assessed as reduction in cell viability incubated for 72 hrs by MTT assay; type: functional, cell-based; settings: dose 0.001-100 µM, DDE = dose-dependent effect
# [9] = system: HepG2; test: Antiproliferative activity against ATM proficient human HepG2 cells assessed as reduction in cell viability incubated for 72 hrs by MTT assay; type: functional, cell-based; settings: dose 0.001-100 µM, DDE = dose-dependent effect
# [10] = molecular target: T1, Serine/threonine-protein kinase ATR (Homo sapiens, UniProt Q13535); test: Inhibition of human recombinant full length ATR using GST-cMyc-p53 as substrate incubated for 40 mins in presence of ATP by HTRF assay
# Target sequence in this assay (Q13535 whole entry): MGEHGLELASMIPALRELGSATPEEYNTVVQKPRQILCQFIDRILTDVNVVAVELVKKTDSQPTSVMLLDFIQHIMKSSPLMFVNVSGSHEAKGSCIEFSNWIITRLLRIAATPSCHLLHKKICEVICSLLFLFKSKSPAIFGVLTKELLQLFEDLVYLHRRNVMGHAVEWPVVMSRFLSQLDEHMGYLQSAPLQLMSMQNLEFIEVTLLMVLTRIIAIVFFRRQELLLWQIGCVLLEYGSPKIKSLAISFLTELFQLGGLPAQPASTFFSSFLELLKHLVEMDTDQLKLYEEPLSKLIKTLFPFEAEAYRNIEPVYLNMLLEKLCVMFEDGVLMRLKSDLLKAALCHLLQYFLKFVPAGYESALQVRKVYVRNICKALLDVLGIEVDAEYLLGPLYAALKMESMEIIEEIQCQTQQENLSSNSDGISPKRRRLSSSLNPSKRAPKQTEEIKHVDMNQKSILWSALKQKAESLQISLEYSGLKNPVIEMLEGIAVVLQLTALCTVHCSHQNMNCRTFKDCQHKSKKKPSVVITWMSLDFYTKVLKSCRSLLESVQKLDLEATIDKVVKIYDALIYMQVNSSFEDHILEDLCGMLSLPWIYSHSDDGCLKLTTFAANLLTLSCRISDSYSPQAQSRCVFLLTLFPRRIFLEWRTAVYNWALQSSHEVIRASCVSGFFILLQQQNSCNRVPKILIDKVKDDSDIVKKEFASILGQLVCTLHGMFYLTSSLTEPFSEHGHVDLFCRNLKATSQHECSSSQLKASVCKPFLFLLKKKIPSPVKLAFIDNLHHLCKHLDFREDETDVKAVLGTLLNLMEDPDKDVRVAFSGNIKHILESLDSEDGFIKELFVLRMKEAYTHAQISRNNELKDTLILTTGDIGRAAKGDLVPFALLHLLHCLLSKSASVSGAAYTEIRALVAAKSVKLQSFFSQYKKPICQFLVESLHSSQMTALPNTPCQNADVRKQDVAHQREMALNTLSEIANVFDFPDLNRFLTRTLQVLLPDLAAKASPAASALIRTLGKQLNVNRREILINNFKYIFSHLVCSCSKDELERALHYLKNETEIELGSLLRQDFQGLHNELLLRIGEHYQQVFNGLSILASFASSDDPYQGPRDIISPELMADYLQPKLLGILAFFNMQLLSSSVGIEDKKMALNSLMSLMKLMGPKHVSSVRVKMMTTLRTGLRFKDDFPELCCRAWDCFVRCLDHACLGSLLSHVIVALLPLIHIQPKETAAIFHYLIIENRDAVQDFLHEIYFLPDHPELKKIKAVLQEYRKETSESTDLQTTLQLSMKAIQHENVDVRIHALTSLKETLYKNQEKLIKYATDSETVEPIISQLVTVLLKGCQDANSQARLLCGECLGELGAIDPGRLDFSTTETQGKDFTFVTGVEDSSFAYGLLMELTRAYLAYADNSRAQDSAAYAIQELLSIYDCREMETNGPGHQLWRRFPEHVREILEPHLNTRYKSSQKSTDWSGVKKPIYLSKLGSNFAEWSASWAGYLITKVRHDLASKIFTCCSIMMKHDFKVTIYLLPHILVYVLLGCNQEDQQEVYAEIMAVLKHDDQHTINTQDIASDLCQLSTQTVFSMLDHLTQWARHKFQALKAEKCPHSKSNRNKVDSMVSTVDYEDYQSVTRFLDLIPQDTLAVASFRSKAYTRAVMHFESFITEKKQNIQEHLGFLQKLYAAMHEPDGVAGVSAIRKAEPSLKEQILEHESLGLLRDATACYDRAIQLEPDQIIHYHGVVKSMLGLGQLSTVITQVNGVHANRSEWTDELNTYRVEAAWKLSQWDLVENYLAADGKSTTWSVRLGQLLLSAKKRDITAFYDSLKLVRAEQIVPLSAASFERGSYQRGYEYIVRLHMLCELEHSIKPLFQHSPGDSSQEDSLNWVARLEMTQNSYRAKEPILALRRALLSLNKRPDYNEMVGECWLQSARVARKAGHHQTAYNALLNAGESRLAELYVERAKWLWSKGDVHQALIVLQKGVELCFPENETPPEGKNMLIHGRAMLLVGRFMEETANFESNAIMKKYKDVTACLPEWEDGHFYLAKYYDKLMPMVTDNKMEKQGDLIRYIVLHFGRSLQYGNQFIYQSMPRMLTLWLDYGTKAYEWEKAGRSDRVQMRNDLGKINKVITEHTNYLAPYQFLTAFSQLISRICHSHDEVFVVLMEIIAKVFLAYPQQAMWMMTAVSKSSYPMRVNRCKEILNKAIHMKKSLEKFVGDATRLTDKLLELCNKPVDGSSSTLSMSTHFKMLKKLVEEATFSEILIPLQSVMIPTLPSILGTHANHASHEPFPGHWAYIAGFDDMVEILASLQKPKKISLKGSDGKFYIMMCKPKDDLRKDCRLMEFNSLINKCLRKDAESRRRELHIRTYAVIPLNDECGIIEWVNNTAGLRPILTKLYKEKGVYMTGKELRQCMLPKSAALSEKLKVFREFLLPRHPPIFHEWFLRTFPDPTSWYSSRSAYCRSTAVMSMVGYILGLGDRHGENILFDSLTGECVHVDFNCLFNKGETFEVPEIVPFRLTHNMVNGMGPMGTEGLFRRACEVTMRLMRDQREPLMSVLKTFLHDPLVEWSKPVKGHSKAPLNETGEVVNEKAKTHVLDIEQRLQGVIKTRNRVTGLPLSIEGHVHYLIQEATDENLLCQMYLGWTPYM
# [11] = system: LoVo; test: Induction of apoptosis in human LoVo cells deficient in ATM assessed as viable cells at 0.3 uM measured after 24 hrs by Annexin V-FITC/Propidium iodide staining based flow cytometry analysis (reference value: 91.64%); type: functional; settings: read-out: Activity
# [12] = system: LoVo; test: Induction of apoptosis in human LoVo cells deficient in ATM assessed as early apoptotic cells at 1 uM measured after 24 hrs by Annexin V-FITC/Propidium iodide staining based flow cytometry analysis (reference value: 4.20%); type: functional
# [13] = system: LoVo; test: Induction of apoptosis in human LoVo cells deficient in ATM assessed as late apoptotic cells at 1 uM measured after 24 hrs by Annexin V-FITC/Propidium iodide staining based flow cytometry analysis (reference value: 3.32%); type: functional
# [14] = system: LoVo; test: Induction of apoptosis in human LoVo cells deficient in ATM assessed as viable cells at 3 uM measured after 24 hrs by Annexin V-FITC/Propidium iodide staining based flow cytometry analysis (reference value: 91.64%); type: functional; settings: read-out: Activity
# [15] = system: HT-29; test: Induction of apoptosis in human HT-29 cells assessed as viable cells at 0.3 uM measured after 48 hrs by Annexin V-FITC/Propidium iodide staining based flow cytometry analysis (reference value: 97.01%); type: functional; settings: read-out: Activity
# [16] = system: HT-29; test: Induction of apoptosis in human HT-29 cells assessed as late apoptotic cells at 3 uM measured after 48 hrs by Annexin V-FITC/Propidium iodide staining based flow cytometry analysis (reference value: 0.71%); type: functional
# [17] = system: HT-29; test: Induction of apoptosis in human HT-29 cells assessed as viable cells at 0.3 uM measured after 48 hrs in presence of AZD1390 by Annexin V-FITC/Propidium iodide staining based flow cytometry analysis (reference value: 95.33%); type: functional; settings: read-out: Activity
# [18] = system: HT-29; test: Induction of apoptosis in human HT-29 cells assessed as necrotic cells at 0.3 uM measured after 48 hrs in presence of AZD1390 by Annexin V-FITC/Propidium iodide staining based flow cytometry analysis (reference value: 0.23%); type: functional
# [19] = system: HT-29; test: Induction of apoptosis in human HT-29 cells assessed as late apoptotic cells at 0.3 uM measured after 48 hrs in presence of AZD1390 by Annexin V-FITC/Propidium iodide staining based flow cytometry analysis (reference value: 0.63%); type: functional
# [20] = system: HT-29; test: Induction of apoptosis in human HT-29 cells assessed as late apoptotic cells at 1 uM measured after 48 hrs in presence of AZD1390 by Annexin V-FITC/Propidium iodide staining based flow cytometry analysis (reference value: 0.63%); type: functional
# [21] = system: HT-29; test: Induction of apoptosis in human HT-29 cells assessed as viable cells at 3 uM measured after 48 hrs in presence of AZD1390 by Annexin V-FITC/Propidium iodide staining based flow cytometry analysis (reference value: 95.33%); type: functional; settings: read-out: Activity
# [22] = Half life in Sprague-Dawley rat at 5 mg/kg, iv measured at 0.083 to 24 hrs by LC-MS/MS method; type: ADME, organism-based; settings: in vivo, time 0.083-24 hrs
# [23] = Tmax in Sprague-Dawley rat at 5 mg/kg, iv measured at 0.083 to 24 hrs by LC-MS/MS method; type: ADME, organism-based; settings: in vivo, time 0.083-24 hrs
# [24] = Cmax in Sprague-Dawley rat at 5 mg/kg, iv measured at 0.083 to 24 hrs by LC-MS/MS method; type: ADME, organism-based; parameters: dose 5 mg/kg, time 0.083-24 hrs, route iv; settings: in vivo
# [25] = Cmax in Sprague-Dawley rat at 10 mg/kg, po measured at 0.083 to 24 hrs by LC-MS/MS method; type: ADME, organism-based; parameters: time 0.083-24 hrs, dose 10 mg/kg, route po; settings: in vivo
# [26] = Clearance in Sprague-Dawley in rat at 5 mg/kg, iv measured at 0.083 to 24 hrs by LC-MS/MS method; type: ADME, organism-based; settings: in vivo, time 0.083-24 hrs
# [27] = Oral bioavailability in Sprague-Dawley rat at 10 mg/kg measured at 0.083 to 24 hrs by LC-MS/MS method; type: ADME, organism-based; settings: in vivo, time 0.083-24 hrs
# [28] = system: LoVo; test: Antitumor activity against human LoVo cells xenografted in NOD/SCID mouse assessed as tumor growth inhibition at 50 mg/kg, po BID for 30 days measured every 2 to 3 days; type: functional; settings: 720 h, time 30 day, read-out: TGI
# [29] = Toxicity in NOD/SCID mouse xenografted with human LoVo cells assessed as body weight loss at 50 to 100 mg/kg, po administered bid for 30 days; type: organism-based; settings: in vivo, 720 h, dose 50-100 mg/kg, time 30 day
# [30] = Toxicity in NOD/SCID mouse xenografted with human LoVo cells assessed as damage in heart at 50 to 100 mg/kg, po administered bid for 30 days measured after 2 hrs post last dose by H and E staining method; type: organism-based; settings: in vivo, 720 h, dose 50-100 mg/kg, time 30 day
# [31] = Toxicity in NOD/SCID mouse xenografted with human LoVo cells assessed as damage in kidney at 50 to 100 mg/kg, po administered bid for 30 days measured after 2 hrs post last dose by H and E staining method; type: organism-based; settings: in vivo, 720 h, dose 50-100 mg/kg, time 30 day
# [32] = system: LoVo; test: In vivo induction of DNA damage in human LoVo cells xenografted in NOD/SCID mouse assessed as increase in gamma H2AX level administered orally twice a day for 30 days by immuno histochemical analysis; type: functional, organism-based; settings: dose 50-100 mg/kg, route po, time 30.0 day, DDE = dose-dependent effect
# [33] = molecular target: T1, Serine/threonine-protein kinase ATR; test: Inhibition of ATR signalling in ATM-deficient human LoVo cells assessed as change in expression of ATR at up to 3 uM incubated for 1 hr followed by hydroxyurea addition measured after 4 hrs by Western blot analysis; type: cell-based; settings: time 5.0 hrs
# Target sequence in this assay (Q13535 whole entry, looked up): as the sequence (Q13535 whole entry) above
structure (smiles),measurement,setting,value
C[C@@H]1COCCN1c1nc(-c2cccc3[nH]ccc23)nc2ccc(-c3ccnn3C)cc12,Activity,[1],7.45%
same,Activity,[2],Dde
same,Activity,[3],Dde
same,Activity,[4],Dde
same,Activity,[5],Dde
same,Activity,[6],Dde
same,Activity,[7],Dde
same,Activity,[8],Dde
same,Activity,[9],Dde
same,pIC50,[10],7.89
same,viability at 0.3 µM,[11],55.9%
same,Activity,[12],28.91%
same,Activity,[13],20.93%
same,viability at 3 µM,[14],41.2%
same,viability at 0.3 µM,[15],95.4%
same,Activity,[16],2.52%
same,viability at 0.3 µM,[17],79%
same,Activity,[18],3.91%
same,Activity,[19],9.85%
same,Activity,[20],9.54%
same,viability at 3 µM,[21],58%
same,half-life,[22],82.2 min
same,Tmax,[23],4.8 min
same,Cmax,[24],3400 ng/mL
same,Cmax,[25],895 ng/mL
same,clearance,[26],26.5 mL/min/kg
same,bioavailability,[27],43.1%
same,inhibition in vivo at 50 mg/kg,[28],50%
same,Activity,[29],Non-Toxic
same,Activity,[30],Non-Toxic
same,Activity,[31],Non-Toxic
same,Activity,[32],Dde
same,inhibition,[33],Active

# Source: ChEMBL document CHEMBL5154749 (Eur J Med Chem, 2022)
